In PubChem BioAssay AID2743 (NMMLSC, 2010):
Activity calls are given as the source filed them.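 How the source made its calls: active means fitted half-maximal concentration for change in GFP expression of 33 µM or less; inactive means the rest.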

assay: potency of AGP1-GFP expression modulators in yeast, dose response, cell-based, flow cytometry, S. cerevisiae, MLPCN hits (AID 2743); conditions: S. cerevisiae AGP1-GFP strain, flow cytometry GFP, 3 h; at 33 µM (top of the series)

SMILES | GFP fluorescence (kMESF)
O=C(O)c1cccc(S(=O)(=O)Nc2ccc(S(=O)(=O)N3CCOCC3)cc2)c1 | 36.9 kMESF (inactive)
COc1ccc(Cl)cc1C(Nc1cccnc1)c1ccc2cccnc2c1O (stereo not given) | 36.3 kMESF (inactive)
CC[C@@]1(c2ccccc2OC)ON(c2ccccc2C(F)(F)F)C1=O | 33.2 kMESF (inactive)
Cc1ccc(N2C(=O)CC(Sc3ncn[nH]3)C2=O)cc1C (stereo not given) | 49.6 kMESF (inactive)
O=C(CCS(=O)(=O)c1ccccc1)Nc1nc(-c2ccccn2)cs1 | 35.9 kMESF (inactive)
N#Cc1c2ccc([N+](=O)[O-])cc2[n+]([O-])n1-c1ccccc1 | 27.6 kMESF (inactive)
Cc1c(N2C(=O)/C(=C\c3ccccc3O)SC2=S)c(=O)n(-c2ccccc2)n1C | 44.8 kMESF (inactive)
Cc1ccc(S(=O)(=O)N2CC(C(=O)O)=CC[C@H]2c2ccc(Cl)cc2)cc1 | 39.2 kMESF (inactive)
Nc1nc(N)c2nc(CNc3ccc(C(=O)NC(CCC(=O)O)C(=O)O)cc3)cnc2n1 (stereo not given) | 46 kMESF (inactive)
Cc1ccc(NC(=O)c2cc(N3C(=O)C=CC3=O)ccc2N2CCOCC2)cc1Cl | 36.2 kMESF (inactive)
COc1ccc(CCNC2=C(Cl)C(=O)N(CCc3ccc(OC)c(OC)c3)C2=O)cc1OC | 41.5 kMESF (inactive)
O=C(/C=C/c1ccccc1Cl)c1ccccc(=O)c1O | 6.58 kMESF (inactive)
CC1=C/C(=N\OS(=O)(=O)c2ccccc2)C(C)=CC1=O | 34.7 kMESF (inactive)
O=C(/C=C/c1cccc(Cl)c1)c1nc2ccccc2[nH]1 | 29.7 kMESF (inactive)
COc1cc(/C=C2\C(=O)N(CCC#N)N=C2C)c(Br)cc1OC(C)C | 43.5 kMESF (inactive)
CCCc1cc(NCc2ccccn2)n2nc(C)c(-c3ccccc3)c2n1 | 40.4 kMESF (inactive)
CS(=O)(=O)N1N=C(c2ccccc2)CC1c1ccc2c(c1)OCO2 (stereo not given) | 126 kMESF (inactive)
Cc1cccc(N2C(=O)C(Cl)=C(Nc3c(C)n(C)n(-c4ccccc4)c3=O)C2=O)c1C | 43.3 kMESF (inactive)

SMILES | GFP fluorescence (kMESF)
O=C1C(Cl)=C(Nc2ccccc2O)C(=O)N1c1ccccc1 | 38.4 kMESF (inactive)
CC(C)[C@@]1(c2ccc(Cl)cc2)ON(c2ccccc2C(F)(F)F)C1=O | 40.5 kMESF (inactive)
COc1ccc(NC2=C(Cl)C(=O)N(CCc3ccccc3)C2=O)c(OC)c1 | 35.3 kMESF (inactive)
Cc1ccc(NN2C(=O)C=C(c3ccc(Cl)cc3)C2=O)cc1 | 44.4 kMESF (inactive)
Cc1ccc(C(=O)O)cc1N=Cc1cc(Br)cc(Br)c1O | 27.3 kMESF (inactive)
c1ccc(-c2csc(Nc3cccnc3)n2)nc1 | 32.1 kMESF (inactive)
O=C(Nc1cccc(C(F)(F)F)c1)Oc1ccc(Cl)c2cccnc12 | 31.6 kMESF (inactive)
CC(C)(C)C(=O)NC(=S)NNC(=O)c1sc2ccccc2c1Cl | 34.2 kMESF (inactive)
O=C(C#Cc1ccccc1)c1ccco1 | 29.7 kMESF (inactive)
COC(=O)CCC(=O)OC1(C)C(=O)C2=COC(c3ccc(OC)cc3)=CC2=C(Br)C1=O (stereo not given) | 7.85 kMESF (inactive)
Cc1nc2ccc(NC(=O)c3oc4ccc(F)cc4c3C)cc2s1 | 35.7 kMESF (inactive)
COc1ccc(NC(=O)/C(C#N)=C/c2ncc([N+](=O)[O-])n2C)c(OC)c1 | 45.2 kMESF (inactive)
O=C(C#Cc1ccccc1)c1cccc([N+](=O)[O-])c1 | 52 kMESF (inactive)
Cc1ccnc(N2C(=O)c3cccc4c([N+](=O)[O-])ccc(c34)C2=O)c1 | 54.7 kMESF (inactive)
CN(O)/C=c1/ccc2c(n1)C(=O)C=CC=2 | 39.5 kMESF (inactive)
O=C1Nc2ccccc2/C1=C\C(=O)c1ccccc1 | 38.3 kMESF (inactive)
Nc1ccc(Br)c2c1C(=O)c1ccccc1C2=O | 27.1 kMESF (inactive)
